Assay results published in patent publication US6413959B1, “Method of treating depression with arylglycinamide derivatives” (Boehringer Ingelheim KG, priority 1995, dated 2002).
Structures can show the parent of a compound that is named as a salt.

How the values were obtained:
[1] = target: T1, NK1-receptor (substance P-receptor) (Homo sapiens, UniProt P25103); experiment: NK1-receptor affinity, displacement of 125I-labelled substance P on IM-9 cells; format: binding; conditions: human lymphoblastoma cells (IM-9) with cloned NK1-receptors
T1 construct: expressed in transfected cells; host or cells: IM-9 human lymphoblastoma cells
T1 sequence (P25103 whole entry): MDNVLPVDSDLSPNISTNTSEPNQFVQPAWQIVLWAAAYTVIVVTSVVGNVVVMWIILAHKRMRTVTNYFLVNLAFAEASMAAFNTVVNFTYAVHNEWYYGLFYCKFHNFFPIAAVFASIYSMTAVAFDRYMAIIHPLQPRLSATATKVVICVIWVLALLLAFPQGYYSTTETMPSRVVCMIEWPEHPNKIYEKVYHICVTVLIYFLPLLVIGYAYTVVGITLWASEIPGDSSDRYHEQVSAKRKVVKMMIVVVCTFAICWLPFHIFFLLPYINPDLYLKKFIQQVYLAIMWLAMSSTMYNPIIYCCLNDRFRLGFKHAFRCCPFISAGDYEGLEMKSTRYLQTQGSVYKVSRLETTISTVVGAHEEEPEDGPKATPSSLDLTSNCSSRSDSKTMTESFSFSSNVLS

melting point	Ki [1]	Structure (SMILES)
118 to 120 °C	–	O=C(NCc1cc(C(F)(F)F)cc(C(F)(F)F)c1)C(c1ccccc1Br)N1CCN(C2CCCCC2)CC1 (centres unmarked) [Example 28]
–	6.8 nM	CC(C)N(CCc1cc(C(F)(F)F)cc(C(F)(F)F)c1)C(=O)C(c1ccccc1)N1CCC(N2CCCCC2)CC1 (centres unmarked) [Example 72]
70 to 73 °C	–	O=C(O)CN(Cc1cc(C(F)(F)F)cc(C(F)(F)F)c1)C(=O)C(c1ccccc1)N1CCN(C2CCCCC2)CC1 (centres unmarked) [Example 22]
205 to 210 °C	–	O=C(NCc1cc(C(F)(F)F)cc(C(F)(F)F)c1)C(c1ccccc1)N1CCC2(CC1)C(=O)NCN2c1ccccc1 (centres unmarked)
142 to 150 °C	–	COc1ccccc1C(C(=O)NCc1cc(C(F)(F)F)cc(C(F)(F)F)c1)N1CCN(C2CCCCC2)CC1 (centres unmarked) [Example 42]
113 to 123 °C	–	CN(CCc1cc(C(F)(F)F)cc(C(F)(F)F)c1)C(=O)C(c1ccccc1)N1CCN(c2ccccc2)CC1 (centres unmarked) [Example 60]
248 to 254 °C	–	O=C(NCc1cc(C(F)(F)F)cc(C(F)(F)F)c1)C(c1ccc(Cl)c(Cl)c1)N1CCN(C2CCCCC2)CC1 (centres unmarked) [Example 23]
265 to 268 °C (dec.)	–	CN(CCc1cc(C(F)(F)F)cc(C(F)(F)F)c1)C(=O)C(c1ccccc1)N1CCC2(CC1)C(=O)NCN2c1ccccc1 (centres unmarked)
180 to 185 °C	–	O=C(NC1CCN(C(C(=O)NCc2cc(C(F)(F)F)cc(C(F)(F)F)c2)c2ccccc2)CC1)c1ccccc1 (centres unmarked) [Example 20]
–	11.8 nM	CN(CCc1ccc(C(F)(F)F)cc1C(F)(F)F)C(=O)C(c1ccccc1)N1CCC(N2CCCCC2)CC1 (centres unmarked) [Example 74]
87 to 95 °C	–	CC(=O)N1CCN(C2CCN(C(C(=O)NCc3cc(C(F)(F)F)cc(C(F)(F)F)c3)c3ccccc3)CC2)C1=O (centres unmarked) [Example 13]
102 to 105 °C	–	O=C(NCc1cc(C(F)(F)F)cc(C(F)(F)F)c1)C(c1ccccc1)N1CCC(N(C(=O)c2ccccc2)c2ccccc2)CC1 (centres unmarked)
164 to 166 °C	–	O=C(NCc1cc(C(F)(F)F)cc(C(F)(F)F)c1)C(c1ccccc1)N1CCC(Nc2ccccn2)CC1 (centres unmarked) [Example 14]
124 to 129 °C	–	O=C(NCc1cc(C(F)(F)F)cc(C(F)(F)F)c1)C(c1ccccc1)N1CCN(C2CCCCC2)CC1 (racemic) [Example 1, (R,S)-1-cyclohexyl-piperazinyl-4-[2-phenylacetic acid-N-(3,5-bis-trifluoromethylbenzyl)amide]]
> 240 °C (dec.)	–	O=C(Nc1ccccc1)C1CCN(C(C(=O)NCc2cc(C(F)(F)F)cc(C(F)(F)F)c2)c2ccccc2)CC1 (centres unmarked) [Example 19]
218 to 223 °C	–	O=C(Nc1ccccc1)NC1CCN(C(C(=O)NCc2cc(C(F)(F)F)cc(C(F)(F)F)c2)c2ccccc2)CC1 (centres unmarked) [Example 10]
210 to 218 °C	–	O=C(NCCc1cc(C(F)(F)F)cc(C(F)(F)F)c1)C(c1ccccc1Br)N1CCN(C2CCCCC2)CC1 (centres unmarked) [Example 62]
–	1.7 nM	CCN(CCc1cc(C(F)(F)F)cc(C(F)(F)F)c1)C(=O)C(c1ccccc1)N1CCC(N2CCCCC2)CC1 (centres unmarked) [Example 73]
155 to 172 °C	–	O=C(NCCc1cc(C(F)(F)F)cc(C(F)(F)F)c1)C(c1cccc2ccccc12)N1CCN(C2CCCCC2)CC1 (centres unmarked) [Example 38]
112 to 118 °C	–	O=C(NCc1cc(C(F)(F)F)cc(C(F)(F)F)c1)C(c1ccc(Cl)cc1)N1CCN(C2CCCCC2)CC1 (centres unmarked) [Example 26]
85 to 92 °C	–	COc1ccccc1C(C(=O)NCCc1cc(C(F)(F)F)cc(C(F)(F)F)c1)N1CCN(C2CCCCC2)CC1 (centres unmarked) [Example 64]
120 to 122 °C	–	O=C(NCc1cc(C(F)(F)F)cc(C(F)(F)F)c1)C(c1ccccc1Cl)N1CCN(C2CCCCC2)CC1 (centres unmarked) [Example 29]

melting point	Ki [1]	Structure (SMILES)
106 to 110 °C	–	CN(CCc1cc(C(F)(F)F)cc(C(F)(F)F)c1)C(=O)C(c1ccccc1)N1CCC(c2ccccc2)CC1.Cl (centres unmarked)
208 to 210 °C	–	O=C(NCc1cc(C(F)(F)F)cc(C(F)(F)F)c1)C(c1ccccc1)N1CCC(n2c(=O)[nH]c3cccnc32)CC1 (centres unmarked) [Example 15]
110 to 115 °C	–	Cl.O=C(NCc1cc(C(F)(F)F)cc(C(F)(F)F)c1)C(c1ccccc1)N1CCC(N2C(=O)CCC2=O)CC1 (centres unmarked)
177 to 187 °C	–	CN(CCc1cc(C(F)(F)F)cc(C(F)(F)F)c1)C(=O)C(c1ccccc1)N1CCC(n2c(=O)[nH]c3ccccc32)CC1 (centres unmarked)
215 to 224 °C	–	O=C(NCCc1cc(C(F)(F)F)cc(C(F)(F)F)c1)C(c1ccccc1Cl)N1CCN(C2CCCCC2)CC1 (centres unmarked) [Example 63]
> 240 °C	–	O=C(NCc1cc(C(F)(F)F)cc(C(F)(F)F)c1)C(c1cccc(Cl)c1)N1CCN(C2CCCCC2)CC1 (centres unmarked) [Example 30]
107 to 111 °C	–	Cc1nc2ccccc2n1C1CCN(C(C(=O)NCc2cc(C(F)(F)F)cc(C(F)(F)F)c2)c2ccccc2)CC1 (centres unmarked)
97 to 99 °C	–	O=C(NCc1cc(C(F)(F)F)cc(C(F)(F)F)c1)C(c1ccccc1)N1CCN(CCC2CCCCC2)CC1 (centres unmarked) [Example 6]
–	1.3 nM	CN(CCc1cc(C(F)(F)F)cc(C(F)(F)F)c1)C(=O)C(c1ccccc1)N1CCC(N2CCCCC2)CC1 (centres unmarked) [Example 33]
210 °C	–	O=C(NCc1cc(C(F)(F)F)cc(C(F)(F)F)c1)C(c1cc(C(F)(F)F)cc(C(F)(F)F)c1)N1CCN(C2CCCCC2)CC1 (centres unmarked) [Example 24]
> 240 °C	–	O=C(NCc1cc(C(F)(F)F)cc(C(F)(F)F)c1)C(c1ccc(F)cc1)N1CCN(C2CCCCC2)CC1 (centres unmarked) [Example 31]
> 220 °C (dec.)	–	NC(=O)C1(N2CCCCC2)CCN(C(C(=O)NCc2cc(C(F)(F)F)cc(C(F)(F)F)c2)c2ccccc2)CC1 (centres unmarked) [Example 11]
134 to 136 °C	–	O=C(NCc1cc(C(F)(F)F)cc(C(F)(F)F)c1)C(c1ccccc1)N1CCN(CCC2CC2)CC1 (centres unmarked) [Example 18]
124 to 127 °C	–	O=C(NCc1cc(C(F)(F)F)cc(C(F)(F)F)c1)C(c1cccc(Br)c1)N1CCN(C2CCCCC2)CC1 (centres unmarked) [Example 27]
> 240 °C	–	CN(CCc1cc(C(F)(F)F)cc(C(F)(F)F)c1)C(=O)C(c1ccccc1)N1CCC(N2CCCCC2)CC1 (centres unmarked) (as salt: hydrochloride) [Example 33]
> 240 °C (dec.)	–	O=C(NCc1cc(C(F)(F)F)cc(C(F)(F)F)c1)C(c1ccccc1)N1CCC(N2CCCCC2)CC1 (centres unmarked) [Example 7]
189 to 191 °C	–	CCC(=O)NC1CCN(C(C(=O)NCc2cc(C(F)(F)F)cc(C(F)(F)F)c2)c2ccccc2)CC1 (racemic) [Example 2, (R,S)-4-propionylamino-1-[2-phenylacetic acid-N(3,5-bis-trifluoromethyl-benzyl)-amide]-piperidine]
192 to 199 °C	–	O=C(NCCc1cc(C(F)(F)F)cc(C(F)(F)F)c1)C(c1ccccc1)N1CCC(N2CCCCC2)CC1 (centres unmarked) [Example 25]
118 to 123 °C	–	O=C(NCCCc1ccc(C(F)(F)F)cc1C(F)(F)F)C(c1ccccc1)N1CCN(C2CCCCC2)CC1 (centres unmarked) [Example 17]
228 to 232 °C	–	O=C(NCc1cc(C(F)(F)F)cc(C(F)(F)F)c1)C(c1ccc(Br)cc1)N1CCN(C2CCCCC2)CC1 (centres unmarked) [Example 21]
145 to 151 °C	–	Cl.O=C(NCc1cc(C(F)(F)F)cc(C(F)(F)F)c1)C(c1ccccc1)N1CCC(N(C(=O)c2ccccc2)c2ccccn2)CC1 (centres unmarked)
127 to 137 °C	–	CN(CCc1cc(C(F)(F)F)cc(C(F)(F)F)c1)C(=O)C(c1ccccc1)N1CCC(C(N)=O)(c2ccccc2)CC1.Cl (centres unmarked)
